Source: patent publication US20060084789A1, “Immunotherapeutic and immunoprphylactic reagents” (priority 2002, published 2006)

Assays:
Type in all cases: cell-based, human
[1] = tested on: RGP-specific TCL; experiment: TCL proliferation assay (3H-thymidine incorporation, stimulation index); conditions: peptides 10 μg/ml
Method: Generation of Short-Term RGP-Specific TCL
PBMC were cultured in 24-well plates (Costar, Mass., USA) at 2.5×10^6 cells/well with RGP extract at a concentration of 25 or 50 μg/ml in RPMI 1640 medium (Gibco BRL, NY, USA) supplemented with 2 mM GlutaMAX I (Gibco BRL), 0.05 mg/ml gentamicin (David Bull Laboratories, Mulgrave, Victoria, Australia) and 5% heat-inactivated hunan AB^+ serum (Sigma, Mo., USA) for 7 days at 37° C. in a 5% CO2 humidified incubator. At day 7, cells were washed once and restimulated in 24-well plates at 5×10^5 cells/well width 25 or 50 μg/ml of RGP extract in the presence of 5×10^5 cells/well irradiated (3000 rads) autologous PBMC as a source of antigen presenting cells (APC). At day 2 following restimulation, 10 U/ml of Lymphocult T-LF (LC; Biotest, Germany) was added as a source of IL-2 and at day 4, 1 ml of culture medium was removed and replaced with fresh medium and 10 U/ml of LC. […] In all experiments T cells were rested for 6 to 7 days after the last addition of antigen and APC before testing.
T cells (5×10^4/well) were cultured in 96-well U bottom plates with either RGP extract at concentrations ranging from 25 to 200 μg/ml, purified Lol p 1 (0.12 to 2 μg/ml) or Lol p 5 (0.1 to 10 μg/ml), or Lol p 1 or Lol p 5 peptides (10 μg/ml), or medium alone (to determine background levels of proliferation), in the presence of washed autologous irradiated (3000 rads) PBMC (5×10^4/well). […] Cultures were incubated for 3 days, pulsed for the last 16 hours with ^3H-thymidine (1 μCi/well) and harvested onto glass fibre filters. ^3H-thymidine incorporation was measured by liquid scintillation spectroscopy and the mean counts per minute (cpm) for triplicate cultures was determined. Responses were considered positive if the stimulation index (SI, cpm of antigen-stimulated T cells divided by cpm of unstimulated T cells) was ≧2.5. Where several concentrations of allergen were tested (i.e., RGP, Lol p 1 and Lol p 5), values corresponding to the highest proliferation are shown.

[2] = tested on: IL-5 production by RGP-specific TCL; experiment: IL-5 detection in culture supernatants by sandwich ELISA; conditions: supernatant at 48 h, UD undetectable, limit of detection 10 pg/ml
Method: (§1) Cytokine Detection in Culture Supernatants
(§2) Supernatants of triplicate cultures were harvested and pooled from T cell proliferation assay cultures at 48 hours for the detection of IL-5 and IFN-γ production by sandwich ELISA. Briefly white Maxisorp (NUNC, Roskilde, Denmark) ELISA plates were coated with capture mAb (anti-IL-5, Pharmingen, San Diego, Calif., USA; anti-IFN-γ, Endogen, Woburn, Mass. USA) overnight at 4° C. Plates were then washed and wells blocked with 1% Bovine Serum Albumin/PBS for 1 hour at room temperature. Following washing, test samples (neat) and serial dilutions of recombinant human IL-5 (Pharmingen, USA) or IFN-γ (Endogen, USA) (for the construction of standard curves) were added and incubated overnight at 4° C. Following washing, plates were incubated with biotinylated detecting mAb (anti-IL-5, Pharmingen, USA; […], Endogen, USA) for 1 hour at room temperature. Plates were then washed and incubated with streptavidin-peroxidase (Amersham, Piscataway, N.J., USA) for 30 minutes at room temperature. Following washing, a chemiluminescent substrate (Du Pont, Wilmington, Del., USA) was added to each well and plates read in a Lumicount microplate Glow Luminometer (Packard Instrument Company, Meriden, Conn., USA), 0.5 seconds/well, automatic sensitivity setting. Standard curve construction and determination of test sample cytokine levels were performed using Packard I-smart software. The limits of detection for IL-5 and IFN-γ were 10 pg/ml and 2 pg/ml respectively.

[3] = tested on: IFN-γ production by RGP-specific TCL; experiment: IFN-γ detection in culture supernatants by sandwich ELISA; conditions: supernatant at 48 h, UD undetectable, limit of detection 2 pg/ml
Method: as §1, §2

[4] = Subject 4 TCL, Lol p 1 series (Table 3), RGP and Lol p 1 maximal response
[5] = Subject 11 TCL, Lol p 1 series (Table 3), RGP and Lol p 1 maximal response
[6] = Subject 15 TCL, Lol p 1 series (Table 3), RGP and Lol p 1 maximal response
[7] = Subject 15 TCL, Lol p 1 peptides
[8] = Subject 23 TCL, Lol p 1 peptides
[9] = Subject 2 TCL, Lol p 5 series (Table 4), RGP and Lol p 5 maximal response
[10] = Subject 11 TCL, Lol p 5 series (Table 4), RGP and Lol p 5 maximal response
[11] = Subject 29 TCL, Lol p 5 series (Table 4), RGP and Lol p 5 maximal response
[12] = Subject 2 TCL, Lol p 5 peptides
[13] = Subject 38 TCL, Lol p 5 peptides
[14] = Subject 20 TCL, Lol p 1 peptides

Substance	Proliferative response, stimulation index [1, 4]	Proliferative response, stimulation index [1, 5]	Proliferative response, stimulation index [1, 6]	IL-5, proliferation inducing peptides [2, 7] [pg/mL]	IFN-γ, proliferation inducing peptides [3, 7] [pg/mL]	Proliferative response, stimulation index [1, 9]	Proliferative response, stimulation index [1, 10]	Proliferative response, stimulation index [1, 11]	IL-5, proliferation inducing peptides [2, 12] [pg/mL]	IFN-γ, proliferation inducing peptides [3, 12] [pg/mL]	other results
KGKDKWIELKESWGAVWRID (Lolium perenne) [Lol p 1 peptide 181-200]	4.5	7.3	5.8	13.3	56.6	–	–	–	–	–	Proliferative response, stimulation index ([1]; Subject 10 TCL, Lol p 1 series (Table 3), RGP and Lol p 1 maximal response): 2.6; Proliferative response, stimulation index ([1]; Subject 18 TCL, Lol p 1 series (Table 3), RGP and Lol p 1 maximal response): 2.6; Proliferative response, stimulation index ([1]; Subject 23 TCL, Lol p 1 series (Table 3), RGP and Lol p 1 maximal response): 6.2; IL-5, proliferation inducing peptides [2, 8]: 25.1 pg/mL; IFN-γ, proliferation inducing peptides [3, 8]: 11.7 pg/mL
Lol p 5 peptide 190-209: synthetic 20-mer, amino acids 190-209 of Lol p 5A (SEQ ID NO:2) (GAYETYKFIPSLEAAVKQAY; Lolium perenne)	–	–	–	–	–	3.0	4.0	3.1	518.1	7.8	Proliferative response, stimulation index ([1]; Subject 4 TCL, Lol p 5 series (Table 4), RGP and Lol p 5 maximal response): 5.1
IAPYHFDLSGHAFGSMAKKG (Lolium perenne) [Lol p 1 peptide 100-119]	6.8	7.9	9.2	275.6	167.1	–	–	–	–	–	Proliferative response, stimulation index ([1]; Subject 2 TCL, Lol p 1 series (Table 3), RGP and Lol p 1 maximal response): 9.4; Proliferative response, stimulation index ([1]; Subject 19 TCL, Lol p 1 series (Table 3), RGP and Lol p 1 maximal response): 3.7
DVNAGFKAAVAAAANAPPAD (Lolium perenne) [Lol p 5 peptide 37-56]	–	–	–	–	–	4.3	4.5	2.8	692.8	7.0	Proliferative response, stimulation index ([1]; Subject 6 TCL, Lol p 5 series (Table 4), RGP and Lol p 5 maximal response): 7.3; Proliferative response, stimulation index ([1]; Subject 13 TCL, Lol p 5 series (Table 4), RGP and Lol p 5 maximal response): 0.9; Proliferative response, stimulation index ([1]; Subject 20 TCL, Lol p 5 series (Table 4), RGP and Lol p 5 maximal response): 4.9; Proliferative response, stimulation index ([1]; Subject 35 TCL, Lol p 5 series (Table 4), RGP and Lol p 5 maximal response): 4.1; Proliferative response, stimulation index ([1]; Subject 38 TCL, Lol p 5 series (Table 4), RGP and Lol p 5 maximal response, * SDS-PAGE purified Lol p 5): 4.0; IL-5, proliferation inducing peptides [2, 13]: 275.1 pg/mL; IFN-γ, proliferation inducing peptides [3, 13]: 85.0 pg/mL
Lol p 1 peptide 64-83: synthetic 20-mer, amino acids 64-83 of Lol p 1A (SEQ ID NO:1) (KDGRGCGSCFEIKCTKPESC; Lolium perenne)	–	–	3.5	26.5	38.8	–	–	–	–	–	Proliferative response, stimulation index ([1]; Subject 1 TCL, Lol p 1 series (Table 3), RGP and Lol p 1 maximal response): 7.2; Proliferative response, stimulation index ([1]; Subject 7 TCL, Lol p 1 series (Table 3), RGP and Lol p 1 maximal response): 3.5
Lol p 1 peptide 37-56: synthetic 20-mer, amino acids 37-56 of Lol p 1A (SEQ ID NO:1) (NCGACGYKDVDKAPFNGMTG; Lolium perenne)	2.5	–	–	–	–	–	–	–	–	–	Proliferative response, stimulation index ([1]; Subject 20 TCL, Lol p 1 series (Table 3), RGP and Lol p 1 maximal response): 2.6; IL-5, proliferation inducing peptides [2, 14]: 46.9 pg/mL; IFN-γ, proliferation inducing peptides [3, 14]: 11.1 pg/mL
